Measurements taken from ChEMBL document CHEMBL4507310, “Data for DCP probe A-1211212” (2021).

Tests used:
[1] = tested on: Tyrosine-protein kinase ABL1 (Homo sapiens), P00519 [F317I]; conditions: Compound concentration 1000.0 nM
[2] = target: Serine/threonine-protein kinase Nek1 (Homo sapiens) (UniProt Q96PY6); conditions: Compound concentration 1000.0 nM
[3] = target: Cyclin-dependent kinase-like 2 (Homo sapiens) (UniProt Q92772); conditions: Compound concentration 1000.0 nM
[4] = target: Cyclin-dependent kinase-like 5 (Homo sapiens) (UniProt O76039); conditions: Compound concentration 1000.0 nM
Sequence of Cyclin-dependent kinase-like 5 (Homo sapiens) (O76039 whole entry): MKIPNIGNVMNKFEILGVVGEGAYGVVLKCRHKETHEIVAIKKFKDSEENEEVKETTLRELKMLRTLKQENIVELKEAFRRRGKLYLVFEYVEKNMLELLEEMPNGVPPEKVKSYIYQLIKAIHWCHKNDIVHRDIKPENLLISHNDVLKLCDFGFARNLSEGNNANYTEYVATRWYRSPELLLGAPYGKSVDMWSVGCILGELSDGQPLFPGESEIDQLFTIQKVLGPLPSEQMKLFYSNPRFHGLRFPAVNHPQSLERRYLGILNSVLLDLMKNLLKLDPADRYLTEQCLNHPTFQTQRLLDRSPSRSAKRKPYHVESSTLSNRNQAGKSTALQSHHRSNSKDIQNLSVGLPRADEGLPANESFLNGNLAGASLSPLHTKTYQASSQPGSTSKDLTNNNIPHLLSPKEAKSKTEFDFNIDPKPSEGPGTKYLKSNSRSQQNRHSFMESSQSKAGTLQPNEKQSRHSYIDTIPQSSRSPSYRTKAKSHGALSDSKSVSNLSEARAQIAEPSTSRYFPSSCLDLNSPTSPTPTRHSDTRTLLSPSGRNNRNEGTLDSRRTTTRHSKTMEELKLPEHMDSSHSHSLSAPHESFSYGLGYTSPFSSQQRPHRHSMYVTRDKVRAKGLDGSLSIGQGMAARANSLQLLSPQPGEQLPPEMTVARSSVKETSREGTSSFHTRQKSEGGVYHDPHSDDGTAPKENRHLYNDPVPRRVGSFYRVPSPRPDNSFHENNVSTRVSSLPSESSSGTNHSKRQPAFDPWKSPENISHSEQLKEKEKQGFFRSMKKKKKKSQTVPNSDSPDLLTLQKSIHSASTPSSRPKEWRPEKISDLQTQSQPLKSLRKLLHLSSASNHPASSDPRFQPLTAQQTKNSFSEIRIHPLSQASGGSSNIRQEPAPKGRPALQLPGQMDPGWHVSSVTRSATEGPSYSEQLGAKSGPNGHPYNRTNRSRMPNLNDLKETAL

[5] = target: T1, GABA-A receptor; anion channel (Rattus norvegicus) (UniProt O09028+P15431+P18506+P18508+P19969+P20236+P23574+P23576+P28471+P28473+P30191+P62813+P63079+P63138+Q91ZM7+Q9ES14); assay: BZD (central) Eurofins-Cerep binding assay; format: protein-complex assay; design: ligand concentration 0.4 nM; conditions: filed as agonist, Compound concentration 10.0 uM
[6] = target: Activin receptor type-1 (Homo sapiens) (UniProt Q04771); conditions: Compound concentration 1000.0 nM
Sequence of Activin receptor type-1 (Homo sapiens) (Q04771 whole entry): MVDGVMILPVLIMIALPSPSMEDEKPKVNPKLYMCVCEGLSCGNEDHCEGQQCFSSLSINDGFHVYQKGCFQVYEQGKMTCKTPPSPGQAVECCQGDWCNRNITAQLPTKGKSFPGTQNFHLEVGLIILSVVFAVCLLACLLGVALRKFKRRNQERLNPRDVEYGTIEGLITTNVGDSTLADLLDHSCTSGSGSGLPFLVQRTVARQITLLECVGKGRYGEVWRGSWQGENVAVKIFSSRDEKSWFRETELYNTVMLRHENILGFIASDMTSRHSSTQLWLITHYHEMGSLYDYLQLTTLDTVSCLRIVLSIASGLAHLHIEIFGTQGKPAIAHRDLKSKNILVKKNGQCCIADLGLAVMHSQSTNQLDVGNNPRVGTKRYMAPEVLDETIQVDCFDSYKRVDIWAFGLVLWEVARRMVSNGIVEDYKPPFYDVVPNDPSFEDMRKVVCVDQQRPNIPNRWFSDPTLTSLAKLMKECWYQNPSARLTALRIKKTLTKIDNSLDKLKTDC

[7] = target: Serine/threonine-protein kinase Sgk3 (Homo sapiens) (UniProt Q96BR1); conditions: Compound concentration 1000.0 nM
[8] = target: Serine/threonine-protein kinase Nek7 (Homo sapiens) (UniProt Q8TDX7); conditions: Compound concentration 1000.0 nM
[9] = target: Sigma non-opioid intracellular receptor 1 (Homo sapiens) (UniProt Q99720); conditions: Compound concentration 10.0 uM
Sequence of Sigma non-opioid intracellular receptor 1 (Homo sapiens) (Q99720 whole entry): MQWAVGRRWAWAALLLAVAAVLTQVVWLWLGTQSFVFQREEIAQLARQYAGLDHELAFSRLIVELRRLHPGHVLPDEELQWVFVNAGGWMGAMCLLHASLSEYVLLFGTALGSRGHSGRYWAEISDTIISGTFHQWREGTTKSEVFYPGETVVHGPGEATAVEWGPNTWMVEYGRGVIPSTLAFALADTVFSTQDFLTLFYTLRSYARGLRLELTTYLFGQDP

[10] = target: Beta-adrenergic receptor kinase 1 (Homo sapiens) (UniProt P25098); conditions: Compound concentration 1000.0 nM
[11] = target: Sodium/potassium-transporting ATPase (Sus scrofa) (UniProt P05027+P05024+D2WKD8+D2WKD7+F1ST41); assay: ATPase (Na+/K+) Eurofins-Cerep enzyme and uptake assay; format: protein-complex assay; conditions: Compound concentration 10.0 uM
[12] = target: Tyrosine-protein kinase SYK (Homo sapiens) (UniProt P43405); conditions: Compound concentration 1000.0 nM
[13] = target: Rhodopsin kinase GRK7 (Homo sapiens) (UniProt Q8WTQ7); conditions: Compound concentration 1000.0 nM
[14] = target: Tyrosine-protein kinase Srms (Homo sapiens) (UniProt Q9H3Y6); conditions: Compound concentration 1000.0 nM
[15] = target: Cyclin-dependent kinase 17 (Homo sapiens) (UniProt Q00537); conditions: Compound concentration 1000.0 nM
[16] = target: Uncharacterized serine/threonine-protein kinase SBK3 (Homo sapiens) (UniProt P0C264); conditions: Compound concentration 1000.0 nM
Sequence of Uncharacterized serine/threonine-protein kinase SBK3 (Homo sapiens) (P0C264 whole entry): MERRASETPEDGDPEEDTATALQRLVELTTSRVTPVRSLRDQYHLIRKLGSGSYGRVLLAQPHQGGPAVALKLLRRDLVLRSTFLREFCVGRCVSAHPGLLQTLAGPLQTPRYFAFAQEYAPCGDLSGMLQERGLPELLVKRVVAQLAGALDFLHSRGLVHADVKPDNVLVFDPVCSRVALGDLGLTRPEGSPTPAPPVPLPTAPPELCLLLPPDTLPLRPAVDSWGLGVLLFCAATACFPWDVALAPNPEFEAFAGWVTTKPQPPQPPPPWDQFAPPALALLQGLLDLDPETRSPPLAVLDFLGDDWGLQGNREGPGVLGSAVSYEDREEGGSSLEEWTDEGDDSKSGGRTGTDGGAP

[17] = target: 5-hydroxytryptamine receptor 2B (Homo sapiens) (UniProt P41595); assay: 5-HT2B (h) Eurofins-Cerep binding assay; design: ligand concentration 0.2 nM; conditions: filed as agonist, Compound concentration 10.0 uM
[18] = target: Myosin-IIIa (Homo sapiens) (UniProt Q8NEV4); conditions: Compound concentration 1000.0 nM
[19] = target: Ephrin type-A receptor 1 (Homo sapiens) (UniProt P21709); conditions: Compound concentration 1000.0 nM
Sequence of Ephrin type-A receptor 1 (Homo sapiens) (P21709 whole entry): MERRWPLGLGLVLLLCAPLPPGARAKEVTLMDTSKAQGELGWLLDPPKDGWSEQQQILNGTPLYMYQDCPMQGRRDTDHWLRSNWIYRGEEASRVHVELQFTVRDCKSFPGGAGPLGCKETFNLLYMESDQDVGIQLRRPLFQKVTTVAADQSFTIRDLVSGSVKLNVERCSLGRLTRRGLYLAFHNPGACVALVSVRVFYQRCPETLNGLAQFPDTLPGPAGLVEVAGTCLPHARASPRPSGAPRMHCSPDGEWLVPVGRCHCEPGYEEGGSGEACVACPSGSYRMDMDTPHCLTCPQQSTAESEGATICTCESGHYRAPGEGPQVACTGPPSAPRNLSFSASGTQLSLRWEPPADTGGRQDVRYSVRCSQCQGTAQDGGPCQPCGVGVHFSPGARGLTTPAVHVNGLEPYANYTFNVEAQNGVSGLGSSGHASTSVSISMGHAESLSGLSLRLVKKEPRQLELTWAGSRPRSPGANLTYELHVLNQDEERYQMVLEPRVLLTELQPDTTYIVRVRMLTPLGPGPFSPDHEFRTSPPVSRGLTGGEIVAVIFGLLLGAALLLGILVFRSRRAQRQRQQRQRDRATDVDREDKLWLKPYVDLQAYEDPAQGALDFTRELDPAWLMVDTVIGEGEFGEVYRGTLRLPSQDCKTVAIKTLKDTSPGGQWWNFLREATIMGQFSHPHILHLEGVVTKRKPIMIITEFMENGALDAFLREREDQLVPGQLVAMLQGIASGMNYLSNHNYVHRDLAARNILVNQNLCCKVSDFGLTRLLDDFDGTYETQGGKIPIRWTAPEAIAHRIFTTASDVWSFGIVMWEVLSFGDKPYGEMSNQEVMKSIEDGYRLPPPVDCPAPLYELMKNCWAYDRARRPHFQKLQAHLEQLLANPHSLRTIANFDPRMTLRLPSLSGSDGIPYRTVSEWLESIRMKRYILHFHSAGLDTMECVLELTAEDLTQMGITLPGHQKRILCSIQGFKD

[20] = target: Serine/threonine-protein kinase pim-2 (Homo sapiens) (UniProt Q9P1W9); conditions: Compound concentration 1000.0 nM
[21] = target: Casein kinase I isoform gamma-2 (Homo sapiens) (UniProt P78368); conditions: Compound concentration 1000.0 nM
[22] = target: Tyrosine-protein kinase CSK (Homo sapiens) (UniProt P41240); conditions: Compound concentration 1000.0 nM
[23] = target: Ribosomal protein S6 kinase alpha-2 (Homo sapiens) (UniProt Q15349); conditions: Compound concentration 1000.0 nM
Sequence of Ribosomal protein S6 kinase alpha-2 (Homo sapiens) (Q15349 whole entry): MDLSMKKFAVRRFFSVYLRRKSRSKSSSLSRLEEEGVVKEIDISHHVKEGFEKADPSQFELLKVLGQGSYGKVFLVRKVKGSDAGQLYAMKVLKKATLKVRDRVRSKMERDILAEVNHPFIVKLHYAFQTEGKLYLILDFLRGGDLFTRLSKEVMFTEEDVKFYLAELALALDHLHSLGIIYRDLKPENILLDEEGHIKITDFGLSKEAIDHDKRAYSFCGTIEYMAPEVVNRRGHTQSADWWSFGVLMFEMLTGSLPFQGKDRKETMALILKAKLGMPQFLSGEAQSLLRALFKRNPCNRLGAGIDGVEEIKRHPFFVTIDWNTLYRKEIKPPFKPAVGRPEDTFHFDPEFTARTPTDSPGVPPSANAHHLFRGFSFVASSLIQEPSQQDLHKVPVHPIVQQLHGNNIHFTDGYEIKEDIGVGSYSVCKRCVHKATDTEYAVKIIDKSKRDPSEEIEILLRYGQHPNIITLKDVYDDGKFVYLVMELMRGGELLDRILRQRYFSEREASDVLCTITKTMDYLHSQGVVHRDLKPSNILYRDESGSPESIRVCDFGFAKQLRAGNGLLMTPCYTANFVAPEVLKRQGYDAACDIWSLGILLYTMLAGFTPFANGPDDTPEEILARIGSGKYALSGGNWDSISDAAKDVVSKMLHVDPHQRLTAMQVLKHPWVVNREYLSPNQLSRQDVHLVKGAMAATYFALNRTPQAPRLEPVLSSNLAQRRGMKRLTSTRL

[24] = tested on: Tyrosine-protein kinase ABL1 (Homo sapiens), P00519 [Q252H]; conditions: Compound concentration 1000.0 nM
[25] = target: Death-associated protein kinase 3 (Homo sapiens) (UniProt O43293); conditions: Compound concentration 1000.0 nM
[26] = target: Serine/threonine-protein kinase pim-3 (Homo sapiens) (UniProt Q86V86); conditions: Compound concentration 1000.0 nM
[27] = target: Cyclin-dependent kinase 11B (Homo sapiens) (UniProt P21127); conditions: Compound concentration 1000.0 nM
[28] = target: Mitogen-activated protein kinase 1 (Homo sapiens) (UniProt P28482); conditions: Compound concentration 1000.0 nM
Sequence of Mitogen-activated protein kinase 1 (Homo sapiens) (P28482 whole entry): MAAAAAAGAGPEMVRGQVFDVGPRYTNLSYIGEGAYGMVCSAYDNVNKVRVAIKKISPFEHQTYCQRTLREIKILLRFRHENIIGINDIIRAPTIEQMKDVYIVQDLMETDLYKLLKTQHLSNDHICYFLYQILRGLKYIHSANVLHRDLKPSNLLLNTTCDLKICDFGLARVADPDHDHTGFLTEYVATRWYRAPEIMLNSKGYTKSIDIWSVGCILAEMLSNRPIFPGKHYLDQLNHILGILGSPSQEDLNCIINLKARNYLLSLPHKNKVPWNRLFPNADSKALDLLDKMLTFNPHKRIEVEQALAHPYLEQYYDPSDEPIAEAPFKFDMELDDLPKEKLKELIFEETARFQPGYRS

[29] = target: cGMP-inhibited 3',5'-cyclic phosphodiesterase 3A (Homo sapiens) (UniProt Q14432); assay: PDE3A (h) Eurofins-Cerep enzyme and uptake assay; conditions: Compound concentration 10.0 uM
[30] = target: Sodium-dependent dopamine transporter (Homo sapiens, UniProt Q01959); assay: dopamine transporter (h) Eurofins-Cerep binding assay; design: ligand concentration 4 nM; conditions: filed as antagonist, Compound concentration 10.0 uM
[31] = target: Receptor-interacting serine/threonine-protein kinase 4 (Homo sapiens) (UniProt P57078); conditions: Compound concentration 1000.0 nM
[32] = target: Macrophage-stimulating protein receptor (Homo sapiens) (UniProt Q04912); conditions: Compound concentration 1000.0 nM
[33] = target: Serine/threonine-protein kinase 17B (Homo sapiens) (UniProt O94768); conditions: Compound concentration 1000.0 nM
[34] = target: Serine/threonine-protein kinase MAK (Homo sapiens) (UniProt P20794); conditions: Compound concentration 1000.0 nM
Sequence of Serine/threonine-protein kinase MAK (Homo sapiens) (P20794 whole entry): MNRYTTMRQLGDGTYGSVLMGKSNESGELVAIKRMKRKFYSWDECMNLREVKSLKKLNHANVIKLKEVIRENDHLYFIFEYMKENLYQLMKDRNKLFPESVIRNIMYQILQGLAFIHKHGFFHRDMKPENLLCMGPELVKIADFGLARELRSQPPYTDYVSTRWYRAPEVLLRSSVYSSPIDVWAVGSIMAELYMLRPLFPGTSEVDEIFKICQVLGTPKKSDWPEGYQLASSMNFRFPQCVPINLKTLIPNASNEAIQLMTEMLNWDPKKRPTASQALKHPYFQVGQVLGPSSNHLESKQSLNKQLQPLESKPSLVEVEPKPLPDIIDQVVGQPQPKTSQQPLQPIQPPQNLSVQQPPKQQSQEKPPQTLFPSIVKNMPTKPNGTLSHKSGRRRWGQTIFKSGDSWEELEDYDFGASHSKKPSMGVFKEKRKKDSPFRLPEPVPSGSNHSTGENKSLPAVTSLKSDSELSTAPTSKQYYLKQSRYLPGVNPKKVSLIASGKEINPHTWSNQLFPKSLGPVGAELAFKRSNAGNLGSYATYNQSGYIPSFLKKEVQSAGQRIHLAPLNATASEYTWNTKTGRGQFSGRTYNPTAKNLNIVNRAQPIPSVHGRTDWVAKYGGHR

[35] = target: T1, GABA-A receptor; anion channel (Rattus norvegicus); assay: Cl- channel (GABA-gated) Eurofins-Cerep binding assay; format: protein-complex assay; design: ligand concentration 3 nM; conditions: filed as antagonist, Compound concentration 10.0 uM
[36] = tested on: Receptor-type tyrosine-protein kinase FLT3 (Homo sapiens), P36888 [D835H]; conditions: Compound concentration 1000.0 nM
[37] = target: Muscarinic acetylcholine receptor M3 (Homo sapiens) (UniProt P20309); conditions: Compound concentration 10.0 uM
[38] = target: 5-hydroxytryptamine receptor 4 (Homo sapiens) (UniProt Q13639); assay: 5-HT4 e (h) Eurofins-Cerep binding assay; design: ligand concentration 0.3 nM; conditions: filed as antagonist, Compound concentration 10.0 uM
[39] = target: Casein kinase I isoform alpha-like (Homo sapiens) (UniProt Q8N752); conditions: Compound concentration 1000.0 nM
[40] = target: Mitogen-activated protein kinase kinase kinase 3 (Homo sapiens) (UniProt Q99759); conditions: Compound concentration 1000.0 nM
[41] = target: Epidermal growth factor receptor (Homo sapiens) (UniProt P00533); conditions: Compound concentration 1000.0 nM
NCI-H146 = assay: CellTiter-Glo Luminescent Cell Viability Assay (BCL-XL dependent cell line H146); format: functional, cell-based; conditions: Homo sapiens
[42] = target: Ephrin type-A receptor 2 (Homo sapiens) (UniProt P29317); conditions: Compound concentration 1000.0 nM
[43] = target: Serine/threonine-protein kinase DCLK3 (Homo sapiens) (UniProt Q9C098); conditions: Compound concentration 1000.0 nM

Molecule `O=C(NS(=O)(=O)c1ccc(NCC2CCOCC2)c([N+](=O)[O-])c1)c1ccc(N2CCN(Cc3ccc(C(F)(F)F)cc3-c3ccc(Cl)cc3)CC2)cc1Oc1cnc2[nH]ccc2c1` [A-1210227] has a residual activity [1] of 87%, a residual activity [2] of 99% and a residual activity [3] of 100%. For the same molecule, the residual activity [4] was 74%, the % Inhibition of Control Specific Binding (Mean n=2) [5] was 4.2% and the residual activity [6] was 89%. It also gave a residual activity [7] of 92%, a residual activity [8] of 97% and an inhibition [9] of 11.1%. The residual activity [10] was 91%, the % Inhibition of Control Values (Mean n=2) [11] was 19.7% and the residual activity [12] was 99%. It also gave a residual activity [13] of 78%, a residual activity [14] of 79% and a residual activity [15] of 100%. For the same molecule, the residual activity [16] was 100%, the % Inhibition of Control Specific Binding (Mean n=2) [17] was -51.4% and the residual activity [18] was 85%. The residual activity [19] was 98%, the residual activity [20] was 73% and the residual activity [21] was 100%. The residual activity [22] was 87%, the residual activity [23] was 100% and the residual activity [24] was 84%. The residual activity [25] was 91%, the residual activity [26] was 100% and the residual activity [27] was 97%. It also gave a residual activity [28] of 87%, a % Inhibition of Control Values (Mean n=2) [29] of 6% and a % Inhibition of Control Specific Binding (Mean n=2) [30] of 2.2%. For the same molecule, the residual activity [31] was 75%, the residual activity [32] was 96% and the residual activity [33] was 100%. The residual activity [34] was 97%, the % Inhibition of Control Specific Binding (Mean n=2) [35] was -1.3% and the residual activity [36] was 100%. For the same molecule, the inhibition [37] was 12.6%, the % Inhibition of Control Specific Binding (Mean n=2) [38] was -2% and the residual activity [39] was 100%. The residual activity [40] was 82%, the residual activity [41] was 84% and the EC50 (NCI-H146) was > 5 µM (not active). It also gave a residual activity [42] of 92% and a residual activity [43] of 93%.
For `CO[C@H]1CC[C@H](CNc2ccc(S(=O)(=O)NC(=O)c3ccc(N4CCN(CC5=C(c6ccc(Cl)cc6)CC(C)(C)CC5)CC4)cc3Oc3cnc4[nH]ccc4c3)cc2[N+](=O)[O-])CC1` [A-1211212], the residual activity [1] was 100%, the residual activity [2] was 77% and the residual activity [3] was 100%. For the same molecule, the residual activity [4] was 74%, the % Inhibition of Control Specific Binding (Mean n=2) [5] was -1% and the residual activity [6] was 84%. It also gave a residual activity [7] of 99%, a residual activity [8] of 82% and an inhibition [9] of 49.8%. For the same molecule, the residual activity [10] was 85%, the % Inhibition of Control Values (Mean n=2) [11] was 5.4% and the residual activity [12] was 62%. The residual activity [13] was 100%, the residual activity [14] was 89% and the residual activity [15] was 99%. It also gave a residual activity [16] of 83%, a % Inhibition of Control Specific Binding (Mean n=2) [17] of -142% and a residual activity [18] of 82%. For the same molecule, the residual activity [19] was 100%, the residual activity [20] was 88% and the residual activity [21] was 80%. It also gave a residual activity [22] of 76%, a residual activity [23] of 97% and a residual activity [24] of 100%. For the same molecule, the residual activity [25] was 68%, the residual activity [26] was 74% and the residual activity [27] was 98%. For the same molecule, the residual activity [28] was 84%, the % Inhibition of Control Values (Mean n=2) [29] was 4.9% and the % Inhibition of Control Specific Binding (Mean n=2) [30] was 29.7%. For the same molecule, the residual activity [31] was 65%, the residual activity [32] was 92% and the residual activity [33] was 91%. For the same molecule, the residual activity [34] was 90%, the % Inhibition of Control Specific Binding (Mean n=2) [35] was 1.3% and the residual activity [36] was 78%. The inhibition [37] was 3.65%, the % Inhibition of Control Specific Binding (Mean n=2) [38] was -1% and the residual activity [39] was 85%. The residual activity [40] was 83%, the residual activity [41] was 62% and the EC50 (NCI-H146) was > 5 µM (not active). For the same molecule, the residual activity [42] was 100% and the residual activity [43] was 84%.
